Source: patent US10100030B2 (Kissei Pharmaceutical Co., Ltd., priority 2013, dated 2018)
Read-outs that look alike come from different tables or passages of the source.

Tests used:
CYP3A4 [1] = molecular target: T1, CYP3A4 (Homo sapiens (Human), UniProt P08684); conditions: background literature; cited from earlier work
[2] = Measurement of drug concentrations in the brain after foot-tapping test; assay type: in vivo; conditions: male; 0.3 mg/kg iv, after foot-tapping was finished, gerbil brain; read-out: Conc. (drug concentration in the brain)
Description: (§1) A male gerbil (Japan SLC) was anesthetized with isoflurane, and 0.3 mg/kg of a test compound was administered from the jugular vein. After four hours, GR73632 (5 pmol/5 μl), which is an NK1 receptor agonist, was administered into the cerebral ventricle at the part 1 mm lateral to and 4.5 mm below the bregma in the head, under anesthesia with isoflurane. After the administration, the gerbil was moved to an observation cage, and the foot-tapping period during five minutes after the recovery of the righting reflex was measured. The foot-tapping inhibition rate (%) of each test compound was calculated by the following equation. Foot-tapping inhibition rate (%)={1−(Foot-tapping period when test compound was administered)/(Foot-tapping period when solvent was administered)}×100 (2) Measurement of Drug Concentrations
After foot-tapping was finished, laparotomy was performed immediately under anesthesia with ether, and a blood sample was taken from the abdominal vena cava. At the same time, the brain was extracted. Through a quantitative analysis using liquid chromatography-mass spectrometry (LC/MS), the concentrations of the test compound in the plasma and the brain were measured.
(§2) In the table, Ex. No. means the Example number. Inhibition (%) is the foot-tapping inhibition rate, and Conc. (nM) is the drug concentration in the brain.

CYP3A4 [3] = molecular target: T1, CYP3A4; assay: Inhibitory effect on CYP3A4 (Luciferin-IPA)
Description: Enzyme reaction was performed by incubating in a potassium phosphate buffer solution (pH 7.4) containing 1 nM to 20 μM test compound, 3.2 mM magnesium chloride, 0.2 pmol human CYP3A4 (BD Biosciences), 0.5 mM reduced nicotinamide adenine dinucleotide phosphate (NADPH) and 3 μM Luciferin-IPA (Promega) at 37° C. for 10 minutes. The volume of the reaction solution was 50 μL/well. The 30-minute pre-incubation group was incubated at 37° C. for 30 minutes before adding the substrate, the Luciferin-IPA solution (12.5 μL/well). At the end of the enzyme reaction, 50 μL/well of a Luciferin detection reagent (Promega) was added to the wells, and the plate was left at room temperature for 20 minutes. Then, the emission intensities were measured with Infinite M1000 (TECAN). The enzyme activities (%) relative to the value of the group to which the test compound was not added were calculated.

NK1 receptor = NK1 receptor (Meriones unguiculatus (Mongolian jird) (Gerbillus unguiculatus), UniProt Q5DUB1); assay: Effect on GR73632-induced foot-tapping; assay type: in vivo; conditions: 0.3 mg/kg from the jugular vein, GR73632 after four hours, male gerbil
Description: (1) Effect on Foot-tapping
as §1, §2

human NK1 receptor [4] = molecular target: T2, human NK1 receptor (Homo sapiens (Human), UniProt P25103); assay: Inhibitory effect on human NK1 receptor (substance P-induced increase in intracellular calcium concentration); assay type: cell-based; conditions: HEK-293T; substance P 1 μM, compound 0.1 μM; human NK1 receptor-expressing 293T cells; read-out: SPRR (Substance P-Response Remaining)
Description: Inhibitory Effect on Human NK1 Receptor
(1) Preparation of Human NK1 Receptor-expressing Cells
Human NK1 receptor-expressing cells were prepared by the same methods as those described in 2-3 and 2-4 of Test Example 1.
(2) Study on Inhibitory Effect on Increase in Intracellular Calcium Concentration
The human NK1 receptor-expressing cells were washed with 300 μL/well of a washing solution (20 mM HEPES/Hank's Balanced Salt Solution (HBSS) […]). A fluorescent calcium indicator (Fluo-4 Direct Calcium Assay Kit, Life Technologies, containing 0.42 mM probenecid and 0.1% bovine serum albumin, prepared according to the protocol of the product) was added to the wells at 150 μL/well, and the plate was incubated at 37° C. for 30 minutes in an incubator. Then, DMSO solutions of a test compound, which were prepared at an 80-time higher concentration using 100% dimethyl sulfoxide (DMSO), were added to the wells at 2.5 μL/well (final concentrations of 0.1, 1 and 10 μM), and the solutions were mixed. Then, the plate was further incubated at 37° C. for 30 minutes in an incubator. After 30 minutes, the intracellular calcium concentrations were measured immediately.
The intracellular calcium concentrations were each measured as a fluorescent signal using FDSS (registered trademark) 7000 (Hamamatsu Photonics). A substance P (Peptide Institute, Inc.) solution which was prepared at 0.4 μM or 4 μM using an assay buffer (20 mM HEPES/Hank's Balanced Salt Solution (HBSS) pH 7.3, containing 0.1% bovine serum albumin) was added automatically to each well at 50 μL/well (final concentration of 0.1 or 1 μM) 10 seconds after starting reading, and the fluorescent signal was measured up to 120 seconds.
The intracellular calcium concentration (%) of the cells to which a test compound was added was calculated by the equation below, where the fluorescent signal of the group to which the vehicle (DMSO) was added was regarded as 100%, and the fluorescent signal before the addition of substance P was regarded as 0%. Intracellular calcium concentration(%)=(Fluorescent signal of test compound addition group)/(Fluorescent signal of vehicle addition group)×100
The intracellular calcium concentration (%) calculated was regarded as the remaining agonist activity of substance P (Substance P-Response Remaining: SPRR). In the table, Ex. No. means the Example number. SPRR (%) is the value obtained when the concentration of substance P was 1 μM and the concentration of the compound was 0.1 μM.

human NK1 receptor [5] = molecular target: T2, human NK1 receptor; assay: Affinity for human NK1 receptor (125I-substance P receptor binding test); conditions: membrane fraction of human NK1 receptor-expressing 293T cells; read-out: IC50 (concentration required for 50% inhibition of 125I-substance P binding)
Description: Affinity for Human NK1 Receptor
(3) Measurement of Binding Affinity to Human NK1 Receptor
(3-1) Preparation of Membrane Fraction from Human NK1 Receptor-expressing Cells
Human NK1 receptor-expressing cells were prepared in a 175 cm^2 culture flask (Nippon Becton Dickinson). The formation of a complex of the human NK1 receptor expression plasmid and Lipofectamine 2000 was performed by calculating the culture area ratio and increasing the scale of the method described in the above 2-4 by the ratio. The human NK1 receptor-expressing cells were collected in a buffer solution for the membrane fraction preparation (50 mM Tris (Wako Pure Chemical). 120 mM sodium chloride (Wako Pure Chemical Industries), 5 mM potassium chloride (Wako Pure Chemical Industries), 1 mM ethylenediaminetetraacetic acid (Sigma), 0.002 mg/mL chymostatin (Peptide Institute), 0.04 mg/ bacitracin (Wako Pure Chemical Industries), 0.005 mg/mL phosphoramidon (Peptide Institute) and 0.5 mM phenylmethylsulfonyl fluoride (Wako Pure Chemical Industries), pH7.4) and centrifuged at 1,880 g for 10 minutes, and the cell sediment was suspended in the buffer solution for the membrane fraction preparation. After freezing and thawing the cells once, the cells were homogenized using a Dounce-type homogenizer (cooled on ice, 1000 rpm, 20 times). The homogenized cell suspension was centrifuged at 20,000 rpm for 10 minutes, and the supernatant was removed to obtain cell sediment. The cell sediment was suspended again in the buffer solution for the membrane fraction preparation and homogenized using a Dounce-type homogenizer (cooled on ice, 1000 rpm, 30 times). The cell suspension was centrifuged at 20,000 rpm for 10 minutes, and the supernatant was removed to obtain cell sediment. The same homogenization and centrifugation were repeated again, and final cell sediment was obtained. The final cell sediment was suspended in a buffer solution for the receptor binding test (50 mM Tris (Wako Pure Chemical Industries), 3 mM manganese chloride (Wako Pure Chemical Industries), 0.002 mg/mL chymostatin (Peptide Institute), 0.04 mg/bacitracin (Wako Pure Chemical Industries) and 0.02% bovine serum albumin (Sigma), pH 7.4), and the protein concentration was measured using BCA Protein Assay Kit (Pierce).
(3-2) Receptor Binding Test
The buffer solution for the receptor binding test was dispensed to the wells of a 96-well assay plate (Greiner) at 22.5 μL/well. DMSO solutions of a test compound, which were prepared at an 80-time higher concentration using 100% dimethyl sulfoxide (DMSO), were added to the wells at 2.5 μL/well (final concentrations of 1 nM to 100 nM), and the solutions were mixed. As a radiolabeled ligand, ^125I-substance P (Substance P, [^125I]Tyr^8-, PerkinElmer) was used. ^125I-substance P was diluted with the buffer solution for the receptor binding test to a concentration resulting in […] and added to the 96-well assay plate, and the solutions were mixed. The membrane fraction prepared from the human NK1 receptor-expressing cells was diluted with the buffer solution for the receptor binding test to a concentration resulting in 8 to 10 μg/well, suspended until the suspension became in such a homogenous state that the suspension could flow through as 27G injection needle smoothly and then added to the 96-well assay plate at 150 μL/well. Then, the plate was incubated at room temperature for 60 minutes while shaking the plate. The reaction solutions were suction-filtered. through a multiscreen 96-well filter plate (Millipore) which had been pre-treated with 0.3% polyethyleneimine, and the reaction was terminated by washing with a washing solution (50 mM Tris and 0.02% bovine serum albumin, pH 7.4) four times. The bottom of the microplate was dried at 60° C., and then 100 μL/well of MicroScint 20 (PerkinElmer) was dispensed to the wells. The top of the plate was sealed with TopSeal A (PerkinElmer), and the plate was shaken for 5 to 10 minutes. […]

[6] = read-out: IC50 (CYP3A4 inhibition), 30-minute pre-incubation group

T2 sequence (P25103 whole entry): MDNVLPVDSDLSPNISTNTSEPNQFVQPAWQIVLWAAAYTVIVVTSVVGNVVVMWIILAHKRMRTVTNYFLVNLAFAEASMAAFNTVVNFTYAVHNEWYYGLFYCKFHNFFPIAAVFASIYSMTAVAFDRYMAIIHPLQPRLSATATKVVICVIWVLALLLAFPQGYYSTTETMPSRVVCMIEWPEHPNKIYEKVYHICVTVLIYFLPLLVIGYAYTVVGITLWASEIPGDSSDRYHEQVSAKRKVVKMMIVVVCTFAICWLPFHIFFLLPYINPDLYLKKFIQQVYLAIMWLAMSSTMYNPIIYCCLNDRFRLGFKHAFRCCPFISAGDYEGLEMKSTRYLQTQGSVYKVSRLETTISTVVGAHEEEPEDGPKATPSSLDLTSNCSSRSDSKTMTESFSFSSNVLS
Sequence of NK1 receptor (Q5DUB1 whole entry): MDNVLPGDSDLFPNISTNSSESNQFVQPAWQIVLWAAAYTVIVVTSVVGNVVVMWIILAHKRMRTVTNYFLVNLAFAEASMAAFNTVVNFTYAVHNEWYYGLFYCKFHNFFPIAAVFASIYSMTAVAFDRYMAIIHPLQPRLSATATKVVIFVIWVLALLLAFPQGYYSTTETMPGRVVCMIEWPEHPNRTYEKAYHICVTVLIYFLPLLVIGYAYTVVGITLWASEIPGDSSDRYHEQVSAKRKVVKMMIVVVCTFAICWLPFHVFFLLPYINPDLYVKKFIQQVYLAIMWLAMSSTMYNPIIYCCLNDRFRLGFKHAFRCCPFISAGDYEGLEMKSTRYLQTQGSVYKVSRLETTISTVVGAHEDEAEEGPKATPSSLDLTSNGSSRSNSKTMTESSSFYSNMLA
T1 sequence (P08684 whole entry): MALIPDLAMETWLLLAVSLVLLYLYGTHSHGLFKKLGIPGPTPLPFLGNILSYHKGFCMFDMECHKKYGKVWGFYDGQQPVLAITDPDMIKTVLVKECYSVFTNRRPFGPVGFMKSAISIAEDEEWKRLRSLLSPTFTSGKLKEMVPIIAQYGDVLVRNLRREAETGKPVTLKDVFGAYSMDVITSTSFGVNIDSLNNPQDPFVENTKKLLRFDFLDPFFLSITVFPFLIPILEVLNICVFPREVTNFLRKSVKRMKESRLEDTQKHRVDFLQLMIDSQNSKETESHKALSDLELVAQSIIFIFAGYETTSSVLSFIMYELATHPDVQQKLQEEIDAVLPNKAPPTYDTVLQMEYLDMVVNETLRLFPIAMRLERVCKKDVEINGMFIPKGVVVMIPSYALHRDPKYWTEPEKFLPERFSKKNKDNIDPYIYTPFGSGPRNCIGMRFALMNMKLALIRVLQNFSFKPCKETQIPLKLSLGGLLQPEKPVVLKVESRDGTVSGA

| concentration at 4 h [2] [nM] | IC50 (CYP3A4 [3]; [6]) [nM] | Inhibition (foot-tapping inhibition rate) (NK1 receptor) [%] | remaining activity at 0.1 µM (human NK1 receptor [4]) [%] | IC50 (human NK1 receptor [5]) [nM] | SMILES | inhibitory effect on CYP3A4 (reported) (CYP3A4 [1]) | IC50 (CYP3A4 [3]) [nM] |
| --- | --- | --- | --- | --- | --- | --- | --- |
| – | – | – | – | – | C[C@@H](O[C@H]1OCCN(Cc2n[nH]c(=O)[nH]2)[C@H]1c1ccc(F)cc1)c1cc(C(F)(F)F)cc(C(F)(F)F)c1 [Aprepitant, aprepitant] | dose-dependent inhibitory effect on CYP3A4 | – |
| 167 | 13000 | 81 | 54 | 2.53 | Cc1ccccc1-c1cc(N2CCC(CC(=O)O)CC2)ncc1N(C)C(=O)C(C)(C)c1cc(C(F)(F)F)cc(C(F)(F)F)c1 [Example 2, (5′-{[2-(3,5-Bistrifluoromethylphenyl)-2-methylpropionyl]methylamino}-4′-ortho-tolyl-3,4,5,6-tetrahydro-2H-[1,2]bipyridinyl-4-yl)acetic acid] | – | – |
| 262 | 3700 | 100 | 13 | 4.61 | Cc1cc(F)ccc1-c1cc(N2CCC(CC(=O)O)C(C)(C)C2)ncc1N(C)C(=O)C(C)(C)c1cc(C(F)(F)F)cc(C(F)(F)F)c1 (centres unmarked) [Example 3] | – | – |
| 179 | 4800 | 100 | 16 | 3.54 | Cc1cc(F)ccc1-c1cc(N2CCC(CC(=O)O)C(C)C2)ncc1N(C)C(=O)C(C)(C)c1cc(C(F)(F)F)cc(C(F)(F)F)c1 (centres unmarked) [Example 4] | – | – |
| 111 | 5500 | 97 | 49 | 3.29 | COC1CN(c2cc(-c3ccc(F)cc3C)c(N(C)C(=O)C(C)(C)c3cc(C(F)(F)F)cc(C(F)(F)F)c3)cn2)CCC1CC(=O)O (centres unmarked) [Example 5, [5′-{[2-(3,5-Bistrifluoromethylphenyl)-2-methylpropionyl]methylamino}-4′-(4-fluoro-2-methylphenyl)-3-methoxyl-3,4,5,6-tetrahydro-2H-[1,2′]bipyridinyl-4-yl]acetic acid] | – | – |
| 243 | 2600 | 100 | 73 | 2.6 | Cc1cc(F)ccc1-c1cc(N2CCC(CC(=O)O)CC2)nc(C#N)c1N(C)C(=O)C(C)(C)c1cc(C(F)(F)F)cc(C(F)(F)F)c1 [Example 6] | – | – |
| – | 4100 | – | 6 | 4.65 | Cc1cc(F)ccc1-c1cc(N2CCC(C(C)(C)C(=O)O)CC2)ncc1N(C)C(=O)C(C)(C)c1cc(C(F)(F)F)cc(C(F)(F)F)c1 [Example 7, [5′-{[2-(3,5-Bistrifluoromethylphenyl)-2-methylpropionyl]methylamino}-4′-(4-fluoro-2-methylphenyl)-3,4,5,6-tetrahydro-2H-[1,2′]bipyridinyl-4-yl]-2-methylpropionic acid] | – | – |
| – | 6300 | – | 6 | 2.83 | Cc1cc(F)ccc1-c1cc(N2CCC(C)(CC(=O)O)CC2)ncc1N(C)C(=O)C(C)(C)c1cc(C(F)(F)F)cc(C(F)(F)F)c1 [Example 9] | – | – |
| 219 | 3800 | 100 | – | 3.32 | Cc1cc(F)ccc1-c1cc(N2CCC(C)(CC(=O)O)CC2)nc(C#N)c1N(C)C(=O)C(C)(C)c1cc(C(F)(F)F)cc(C(F)(F)F)c1 [Example 10, [5′-{[2-(3,5-Bistrifluoromethylphenyl)-2-methylpropionyl]methylamino}-6′-cyano-4′-(4-fluoro-2-methylphenyl)-4-methyl-3,4,5,6-tetrahydro-2H-[1,2′]bipyridinyl-4-yl]acetic acid] | – | – |
| – | – | – | – | – | CC(=O)N1CCN([C@H]2CCN(C(=O)N(C)[C@H](C)c3cc(C(F)(F)F)cc(C(F)(F)F)c3)[C@@H](c3ccc(F)cc3C)C2)CC1 [casopitant] | inhibitory effect on CYP3A4 | – |
| – | – | – | – | – | Cc1ccccc1-c1cc(N2CCN(C)CC2)ncc1N(C)C(=O)C(C)(C)c1cc(C(F)(F)F)cc(C(F)(F)F)c1 [netupitant] | inhibitory effect on CYP3A4 | – |

| SMILES | concentration at 4 h [2] [nM] | IC50 (CYP3A4 [3]; [6]) [nM] | Inhibition (foot-tapping inhibition rate) (NK1 receptor) [%] | remaining activity at 0.1 µM (human NK1 receptor [4]) [%] | IC50 (human NK1 receptor [5]) [nM] | inhibitory effect on CYP3A4 (reported) (CYP3A4 [1]) | IC50 (CYP3A4 [3]) [nM] |
| --- | --- | --- | --- | --- | --- | --- | --- |
| Cc1cc(F)ccc1-c1cc(N2CCC([C@H](C)C(=O)O)CC2)ncc1N(C)C(=O)C(C)(C)c1cc(C(F)(F)F)cc(C(F)(F)F)c1 [Example 11, (S)-2-[5′-{[2-(3,5-Bistrifluoromethylphenyl)-2-methylpropionyl]methylamino}-4′-(4-fluoro-2-methylphenyl)-3,4,5,6-tetrahydro-2H-[1,2′]bipyridinyl-4-yl]propionic acid] | – | – | – | 7 | 1.32 | – | 4900 |
